The text below walks through data of US20220071952A1, “METHODS OF TREATING AND PREVENTING HEPATOTOXICITY” (Natreon, Inc., priority 2020, published 2022).

The subject of data set [1] is CCl4-induced hepatotoxicity in mice. Description: Synergistic hepatoprotective activity of DBPs against CCl4-induced hepatotoxicity (Example IV). The following applies: CCl4 1 ml/kg, Ursocol 250 mg/kg b.w., mean ± SEM, n=4.
The subject of data set [2] is alcohol-induced hepatotoxicity in mice. Description: Synergistic hepatoprotective activity of DBPs against alcohol-induced hepatotoxicity (Example IV). As to conditions: for ACP / ALP / ALT / AST / Total Protein: alcohol 5 g/kg, Ursocol 250 mg/kg b.w., mean ± SEM, n=4.
Procedure: Hepatotoxicity was induced by oral administration of alcohol (ethanol: 5 g/kg) from stock 400 mg/ml twice daily for 15 days.
3-OH-DBP and 3,8-(OH)2-DBP were each separately suspended in 0.3% CMC and administered at a dose of 10 mg/kg body weight per orally for 15 days. During the 15 days treatment, body weight, food intake, and water intake were monitored at regular intervals. Following 15 days of treatment physical parameters (relative organ weight) and biochemical parameters (plasma total protein content, ALT, AST, ALP, and ACP) were studied.
3-OH-DBP (2 mg/kg body weight, 10 mg/kg body weight);
3,8-(OH)2-DBP (10 mg/kg body weight, 50 mg/kg body weight); and

On to `C[C@H](CCC(=O)O)[C@H]1CC[C@H]2[C@@H]3[C@@H](O)C[C@@H]4C[C@H](O)CC[C@]4(C)[C@H]3CC[C@]12C` [Ursocol, ursodeoxycholic acid, reference compound], for which, in data set [1] (female mice), the ACP turned out to be 29 ± 3.3 U/L, the ALP came out at 45 ± 6.9 IU/L, the ALT stood at 50 ± 5.6 IU/L and the AST turned out to be 49 ± 6.8 IU/L. Besides, the “Total Protein” value in data set [1] (female mice) is 6 ± 0.22 g/dL. For the same compound, in data set [1] (male mice), the ACP is 22 ± 4.4 ^ U/L, the ALP was 60 ± 9.9 ^ IU/L, the ALT is listed as 21 ± 2.6 ^ IU/L and the AST is 18 ± 3.4 ^ IU/L. In addition, the “Total Protein” value in data set [1] (male mice) is on record as 6 ± 0.55 g/dL. Also, in data set [2] (female mice), the ACP is recorded as 2.4 ± 0.47 U/L, the ALP is 49 ± 6.5 IU/L, the ALT is listed as 26.63 ± 2.85 IU/L and the AST was 25.39 ± 4.08 IU/L. Also, the “Total Protein” value in data set [2] (female mice) is 5.97 ± 0.53 g/dL. In addition, in data set [2] (male mice), the ACP was determined as 3.19 ± 0.36 U/L, the ALP is on record as 86.1 ± 3.73 IU/L, the ALT is recorded as 26.6 ± 1.94 ^ IU/L and the AST is recorded as 24.3 ± 3.84 IU/L. Besides, in data set [2] (male mice), the “Total Protein” value stood at 8.83 ± 0.16 g/dL. Further, the Relative liver weight result in data set [2] (male mice, alcohol study of Example IV) is on record as “significantly increased”.
